Assays:
[1] = species on record: Mus musculus; experiment: animal or person; conditions: sc, read-out: Inhibition
Description: Analgesic activity in mice using phenylquinone writhing test at 0.038 mg/kg, sc dose

[2] = tested on: Mus musculus; experiment: Analgesic activity in mice using phenylquinone writhing test at 30 mg/kg, sc dose; assay type: functional; conditions: route subcutaneous
[3] = tested on: Rattus norvegicus; experiment: % change in blood glucose concentration after 2 hr post treatment at 100 mg/kg, po; assay type: functional; design: unit: %
[4] = tested on: Rattus norvegicus; experiment: (§1) % change in blood glucose concentration after 4 hr post treatment at 100 mg/kg, po; assay type: functional; design: unit: %
[5] = tested on: Mus musculus; experiment: Analgesic activity in mice using phenylquinone writhing test at 0.0075 mg/kg, sc dose; assay type: functional; conditions: route subcutaneous
[6] = tested on: Mus musculus; experiment: Analgesic activity in mice using phenylquinone writhing test at 10 mg/kg, sc dose; assay type: functional; conditions: route subcutaneous
[7] = tested on: Mus musculus; experiment: Analgesic activity in mice using phenylquinone writhing test at 10 mg/kg, sc dose. 2 mg/kg Noxolone was prior to compound injection; assay type: functional
[8] = tested on: Rattus norvegicus; experiment: % change in blood glucose concentration after 2 hr post treatment at 17 mg/kg, po; assay type: functional
[9] = tested on: Rattus norvegicus; experiment: % change in blood glucose concentration after 4 hr post treatment at 30 mg/kg, po; assay type: functional
[10] = tested on: Mus musculus; experiment: Analgesic activity in mice using phenylquinone writhing test at 3mg/kg, sc dose; assay type: functional
[11] = tested on: Mus musculus; experiment: Analgesic activity in mice using phenylquinone writhing test at 3 mg/kg, sc dose. 0.6 mg/kg Noxolone was prior to compound injection; assay type: functional
[12] = tested on: Mus musculus; experiment: Effective dose in mouse hotplate test at 55+/-0.5 degree Centigrade after 30 min of dosing; assay type: functional; conditions: 0.5 h
[13] = tested on: Mus musculus; experiment: Analgesic activity in mice using phenylquinone writhing test at 60 mg/kg, sc dose; assay type: functional; conditions: route subcutaneous
[14] = tested on: Rattus norvegicus; experiment: Inhibitory against carrageenan induced paw edema in rat at 120 mg/kg, sc dose after 3h; assay type: functional; conditions: route subcutaneous
[15] = tested on: Rattus norvegicus; experiment: Inhibitory against carrageenan induced paw edema in rat at 120 mg/kg, sc dose after 5 hr; assay type: functional; conditions: route subcutaneous
[16] = tested on: Mus musculus; experiment: Analgesic activity in mice using phenylquinone writhing test at 120 mg/kg, sc dose; assay type: functional; conditions: route subcutaneous
[17] = tested on: Mus musculus; experiment: Analgesic activity in mice using phenylquinone writhing test at 25 mg/kg, sc dose; assay type: functional; conditions: route subcutaneous
[18] = tested on: Rattus norvegicus; experiment: % change in blood glucose concentration after 2 hr post treatment at 41 mg/kg, po; assay type: functional
[19] = tested on: Rattus norvegicus; experiment: % change in blood glucose concentration after 4 hr post treatment at 53 mg/kg, po; assay type: functional
[20] = tested on: Mus musculus; experiment: Analgesic activity in mice using phenylquinone writhing test at 16.5 mg/kg, sc dose; assay type: functional; conditions: route subcutaneous
[21] = tested on: Rattus norvegicus; experiment: % change in blood glucose concentration after 2 hr post treatment at 36.5 mg/kg, po; assay type: functional
[22] = tested on: Mus musculus; experiment: Analgesic activity in mice using phenylquinone writhing test at 14.5 mg/kg, sc dose; assay type: functional; conditions: route subcutaneous
[23] = tested on: Rattus norvegicus; experiment: as §1; assay type: functional
[24] = tested on: Rattus norvegicus; experiment: Inhibitory against carrageenan induced paw edema in rat at 128 mg/kg, sc dose after 3h; assay type: functional; conditions: route subcutaneous
[25] = tested on: Rattus norvegicus; experiment: Inhibitory against carrageenan induced paw edema in rat at 128 mg/kg, sc dose after 5 hr; assay type: functional; conditions: route subcutaneous
[26] = tested on: Mus musculus; experiment: Inhibitory against carrageenan induced paw edema in mice at 128 mg/kg, sc dose after 3h; assay type: functional; conditions: route subcutaneous
[27] = tested on: Mus musculus; experiment: Analgesic activity in mice using phenylquinone writhing test at 128 mg/kg when administered subcutaneously; assay type: functional; conditions: sc, route subcutaneous
[28] = tested on: Rattus norvegicus; experiment: % change in blood glucose concentration after 2 hr post treatment at 128 mg/kg, po; assay type: functional
[29] = tested on: Rattus norvegicus; experiment: % change in blood glucose concentration after 4 hr post treatment at 128 mg/kg, po; assay type: functional
[30] = tested on: Mus musculus; experiment: Inhibitory against carrageenan induced paw edema in mice at 128 mg/kg, sc dose after 5 hr; assay type: functional; conditions: route subcutaneous
[31] = tested on: Mus musculus; experiment: Analgesic activity in mice using phenylquinone writhing test at 0.00075 mg/kg, sc dose; assay type: functional; conditions: route subcutaneous
[32] = tested on: Rattus norvegicus; experiment: % change in blood glucose concentration after 2 hr post treatment at 50 mg/kg, po; assay type: functional
[33] = tested on: Rattus norvegicus; experiment: % change in blood glucose concentration after 4 hr post treatment at 60 mg/kg, po; assay type: functional
[34] = tested on: Mus musculus; experiment: Analgesic activity in mice using phenylquinone writhing test at 50 mg/kg, sc dose; assay type: functional; conditions: route subcutaneous
[35] = tested on: Mus musculus; experiment: Inhibitory against carrageenan induced paw edema in mice at 12 mg/kg, sc dose after 3h; assay type: functional; conditions: route subcutaneous
[36] = tested on: Mus musculus; experiment: Inhibitory against carrageenan induced paw edema in mice at 12 mg/kg, sc dose after 5 hr; assay type: functional; conditions: route subcutaneous
[37] = tested on: Mus musculus; experiment: Analgesic activity in mice using phenylquinone writhing test at 56 mg/kg, sc dose; assay type: functional; conditions: route subcutaneous

Compound	inhibition in vivo at 30 mg/kg [2]	Hyperglycemic activity [3]	Hyperglycemic activity [4]	also measured
CN1CC[C@]23c4c5ccc(O)c4O[C@H]2[C@@H](O)C=C[C@H]3[C@H]1C5	–	–	–	inhibition in vivo at 0.038 mg/kg [1]: 50%
O=C(NN1CC=CCC1)C1CC1	100%	66	111	–
O=C(NN1CC=CCC1)c1cccs1	77%	116	64	–
O=C(NN1CC=CCC1)c1ccco1	99%	181	182	inhibition in vivo at 0.0075 mg/kg [5]: 50%; inhibition in vivo at 10 mg/kg [6]: 98.4%; Inhibition [7]: 99.2%; Hyperglycemic activity [8]: 50; Hyperglycemic activity [9]: 50
CCOC(=O)NN1CC=CCC1	99%	27	91	inhibition in vivo at 3 mg/kg [10]: 85.6%; Inhibition [11]: 86%; ED50 [12]: 19.5 mg/kg
O=C(Cc1ccc2c(c1)OCO2)NN1CC=CCC1	–	7	21	inhibition in vivo at 60 mg/kg [13]: 80%; inhibition in vivo at 120 mg/kg [14]: 0%; inhibition in vivo at 120 mg/kg [15]: 0%
O=C(CCc1ccccc1)NN1CC=CCC1	–	27	25	inhibition in vivo at 120 mg/kg [16]: 42%; inhibition in vivo at 120 mg/kg [14]: 83%; inhibition in vivo at 120 mg/kg [15]: 83%
O=C(COc1cccc2ccccc12)NN1CC=CCC1	76%	9	14	–
O=C(COc1ccccc1)NN1CC=CCC1	–	–	–	inhibition in vivo at 25 mg/kg [17]: 50%; Hyperglycemic activity [18]: 50; Hyperglycemic activity [19]: 50; inhibition in vivo at 120 mg/kg [14]: 83%; inhibition in vivo at 120 mg/kg [15]: 80%
O=C(NN1CC=CCC1)C1CCCCC1	–	–	–	inhibition in vivo at 16.5 mg/kg [20]: 50%; Hyperglycemic activity [21]: 50; Hyperglycemic activity [19]: 50; inhibition in vivo at 120 mg/kg [14]: 50%; inhibition in vivo at 120 mg/kg [15]: 84%
CC(=O)NN1CC=CCC1	99%	35	36	–
O=C(Cc1cccnc1)NN1CC=CCC1	–	0	–	inhibition in vivo at 14.5 mg/kg [22]: 50%; Hypoglycemic activity [23]: -6; inhibition in vivo at 128 mg/kg [24]: 50%; inhibition in vivo at 128 mg/kg [25]: 50%
O=C(NN1CC=CCC1)C1CCCC1	98%	54	22	–
O=C(NN1CC=CCC1)c1cccc[n+]1[O-]	–	–	–	inhibition in vivo at 128 mg/kg [26]: 34%; inhibition in vivo at 128 mg/kg [27]: 55%; Hypoglycemic activity [28]: <20; Hypoglycemic activity [29]: <20; inhibition in vivo at 128 mg/kg [30]: 0%
CC(C)(C)C(=O)NN1CC=CCC1	100%	70	101	–
O=C(NN1CC=CCC1)c1cccc(C(=O)NN2CC=CCC2)n1	60%	-8	10	–
O=C(NN1CC=CCC1)C1CCCCCC1	98%	100	82	inhibition in vivo at 0.00075 mg/kg [31]: 50%; Hyperglycemic activity [32]: 50; Hyperglycemic activity [33]: 50
O=C(NN1CC=CCC1)C12C[C@H]3C[C@@H](C1)C[C@@H](C2)C3	86%	33	22	–
Cn1cccc1C(=O)NN1CC=CCC1	90%	35	25	–
CC(=O)Oc1ccccc1C(=O)O [ASPIRIN]	–	–	–	inhibition in vivo at 50 mg/kg [34]: 50%
COc1ccc2c(c1)c(CC(=O)O)c(C)n2C(=O)c1ccc(Cl)cc1 [INDOMETHACIN]	–	–	–	inhibition in vivo at 12 mg/kg [35]: 17%; inhibition in vivo at 12 mg/kg [36]: 83%
CCC(=O)O[C@](Cc1ccccc1)(c1ccccc1)[C@H](C)CN(C)C [PROPOXYPHENE]	–	–	–	inhibition in vivo at 56 mg/kg [37]: 50%
